Consider two compounds from publication PMC5563081, “Modulating Protein-Protein Interactions of the Mitotic Polo-like Kinases to Target Mutant KRAS” (Cell Chemical Biology, 2017).

Where two headings read alike, the source gives them in different places.

One data set has as its system HeLa. Kind of data set: GI50 for cell killing, HeLa. The class given is cell-based. The settings on record: Homo sapiens.
Another data set relates to HPAF II. Kind of data set: Cell viability (SRB), HPAF II. The class given is cell-based. The settings on record: Homo sapiens, 72 h. The method, then: SW48 Parental, SW48 G12D, Panc-1, HPAF-II, Panc 02.03 and Panc 05.04 cell lines were seeded overnight at 5000 cells per well in a 96 well plate in recommended media (ATCC). Compounds were added the following day and viability was measured at 72h using the sulforhodamine B (SRB) colorimetric assay as follows. Cells were fixed by replacing media with 1% v/v Trichloroacetic Acid (TCA) (Sigma-Aldrich) at 4°C and incubated for 1h also at 4°C. Wells were washed thoroughly with copious amounts of deionised water before staining with Sulforhodamine B (SRB) (Sigma-Aldrich) solution (0.057% w/v in 1% v/v Acetic Acid (VWR)) for 30 min. […] Fluorescence intensity was recorded at Ex540nm / Em590nm using a BMG Pherastar Plus plate reader ([Vichai and Kirtikara, 2006]).
Pancreatic organoids were extracted and cultured as detailed above ([Boj et al., 2015]). […] Full-grown organoids were then treated with compounds for 72h and viability determined using CellTitre Glo 3D assay (Promega). […] The 96 well plates were treated with a dose range of compounds or DMSO, and viability was determined via SRB colorimetric assay. […]
Cells were reverse-transfected with 50nM (SW48 parental, SW48 KRAS G12D and Panc-1) or 25nM (HeLa Flp-In T-REx parental cells) siRNA using Dharmafect (GE Dharmacon) as manufacturer’s recommendations. […] Viability was assessed after 72 hrs, with the SRB colorimetric assay. […]

Another data set concerns HCT116 KRAS G13D cells. Kind of data set: Development of drug resistance under continuous treatment. The class given is cell-based, human. Conditions: continuous treatment at 5x GI50. As for the experimental part: HCT116 wild-type cells (Horizon Discovery Ltd.) cultured in McCoy's 5A (Life Technologies #26600) medium supplemented with 10% Foetal Calf Serum (Life Technologies #10270) were treated on three occasions with titrations of the PLK1 ATP-competitive inhibitor BI 2536 (Selleckchem #S1109) or Poloppin in order to determine the 2.5x GI50, 3x GI50 and 5x GI50 values for each compound required to initiate the development of resistance. Cells were subsequently treated with 2.5x GI50, 3x GI50 and 5x GI50 concentrations of either compound, changing media and compound every three to four days until resistant colonies emerged or no viable cells remained. Single cell clones were isolated from cells resistant to 5x GI50 BI 2536. Equivalent experiments using 3x GI50 or 2.5x GI50 doses of Poloppin or BI2536 yielded identical results (data not shown). BI 2536-resistant clones (HCT116 BI 2536-Res. Clones) were treated with BI2536 or Poloppin, alongside drug-sensitive parental HCT116 cells (HCT116 wt), and viability was assessed after 72 h. Viability is represented as percentage survival normalised to DMSO control. […]

Another data set relates to phospho-Ser10 histone H3. Kind of data set: Phospho-histone H3 (Ser10) in xenograft tumour lysates (Western blot). The settings on record: within 24 hr after single 200mg/kg oral dose, compared with vehicle. The class given is in vivo, mouse. The method, then: Tumours were established by sub-cutaneous implantation of 2 x 10^6 HCT116 cells suspended in 50% Matrigel into the flanks of a cohort of mice. When a sufficient number of mice had developed tumours of approximately 100mm3, they were randomly assigned to three groups: Vehicle, 50mg/kg Poloppin-II or 200mg/kg Poloppin-II, with 10 mice per group. Mice were treated orally according to their treatment group once every three days. Tumour volume was measured three times per week with calipers. Body weight was measured three times per week. In addition to mice assigned to tumour volume efficacy arm of the study, 16 mice with established HCT116 xenografts were assigned to either Vehicle or 200mg/kg oral dosing groups, with 8 mice per group. 24 hours after a single dose, mice were euthanised, tumours removed, snap frozen and 30-50microgram of lysates were analysed by Western blotting on 4-12% Bis-Tris acrylamide gels, and transferred using the Invitrogen iBlot dry system. Phospho-Histone H3 was detected using Abcam antibody ab5176, beta-actin with Sigma antibody a5316. […] HRP was visualised with ECL-Plus (GE Healthcare).
For orientation: In western blotting, separated proteins are transferred to a membrane and probed.

A short description of data set [1]: Stability in human hepatocytes. It counts as in vitro ADME.

As to `O=C(O)CCc1ccc(-c2ccc(Br)cc2)n1-c1ccccc1C(F)(F)F` [Poloppin], in the data set on HeLa, the GI50 (usually the concentration that inhibits growth by half) stood at 10 µM. Further, the EC50 (commonly the concentration that produces a half-maximal response) with HPAF II (read-out: EC50, % survival, HPAF II, All Stars control siRNA, 72 h) came to 12.4 ± 1.08 µM; in the data set with HPAF II (read-out: EC50, % survival, HPAF II, siMET, 72 h) it was 5.6 ± 1.05 µM. Besides, the “acquisition of drug resistance” value in the data set with HCT116 KRAS G13D cells is listed as “undetectable”.
For `CN(C)CCNC(=O)c1ccc(-c2ccc(-c3ccc(Cl)cc3)n2-c2ccccc2C(F)(F)F)cc1` [Poloppin-II], the “phospho-Ser10 histone H3 expression in xenografts” value with phospho-Ser10 histone H3 is recorded as “increased levels”. In data set [1], the half-life (commonly how long it takes for the measured level to halve) was found to be 2.27 h and the intrinsic clearance (hepatocyte CLint) (as a rule, the capacity of the preparation to metabolise the compound, expressed as a volume cleared per time) was determined as 10 µL/min/1e6 cells.
